# Activity calls are given as the source filed them. The rule behind the calls is not given here.
# Experiments:
# T47D = test: Antiproliferative activity against human T47D cells assessed as inhibition of cell growth measured after 24 hrs by MTT assay; format: functional, cell-based
# MDA-MB-231 = test: Antiproliferative activity against human MDA-MB-231 cells assessed as inhibition of cell growth measured after 24 hrs by MTT assay; format: functional, cell-based; details: MDA-MB-231, 24 h
# [1] = Cytotoxicity against human MCF-10A cells assessed as inhibition of cell growth measured after 24 hrs by MTT assay; format: toxicity, cell-based
# [2] = molecular target: T1, Nuclear receptor subfamily 4immunitygroup A member 1 (Homo sapiens, UniProt P22736); test: Binding affinity to His-tagged Nur77 ligand binding domain (unknown origin) at 10 uM by surface plasmon resonance assay; details: filed as modulator
# [3] = molecular target: T1, Nuclear receptor subfamily 4immunitygroup A member 1; test: Binding affinity to His-tagged Nur77 ligand binding domain (unknown origin) by surface plasmon resonance assay
# [4] = molecular target: T1, Nuclear receptor subfamily 4immunitygroup A member 1; test: Antagonist activity at Nur77 ligand binding domain (unknown origin) transfected in HEK293T cells cotransfected with pG5-Luc assessed as inhibition of receptor transcriptional activity at 2 uM measured after 12 hrs by luciferase reporter gene assay; format: cell-based; details: filed as antagonist
# [5] = Toxicity in Zebra fish AB embryo assessed as mortality rate at 1.25 to 5 uM measured after 24 hrs; set-up: species or system Danio rerio; details: zebrafish, dose 1.25-5 µM
# [6] = Toxicity in Zebra fish AB embryo assessed as mortality rate at 1.25 uM measured after 24 to 72 hrs; set-up: species or system Danio rerio; details: AB, zebrafish, time 24-72 hrs
# T1 sequence (P22736 whole entry, the tested form may be a part): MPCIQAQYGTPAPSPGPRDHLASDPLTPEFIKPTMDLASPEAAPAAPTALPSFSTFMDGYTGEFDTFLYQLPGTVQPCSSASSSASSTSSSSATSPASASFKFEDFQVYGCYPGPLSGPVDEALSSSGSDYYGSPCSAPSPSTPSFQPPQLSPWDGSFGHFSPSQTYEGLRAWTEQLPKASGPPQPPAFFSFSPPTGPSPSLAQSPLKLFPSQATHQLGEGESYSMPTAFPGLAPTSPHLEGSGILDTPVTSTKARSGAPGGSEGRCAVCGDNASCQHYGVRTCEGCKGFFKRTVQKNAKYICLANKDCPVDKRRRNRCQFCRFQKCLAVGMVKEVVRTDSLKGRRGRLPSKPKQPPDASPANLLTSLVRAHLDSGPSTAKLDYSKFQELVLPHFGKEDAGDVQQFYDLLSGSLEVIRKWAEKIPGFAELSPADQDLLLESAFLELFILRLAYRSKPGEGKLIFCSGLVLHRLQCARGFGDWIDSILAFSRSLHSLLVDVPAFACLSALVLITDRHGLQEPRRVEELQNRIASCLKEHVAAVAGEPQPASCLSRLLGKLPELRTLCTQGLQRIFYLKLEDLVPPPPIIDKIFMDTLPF
SMILES,IC50 (T47D),IC50 (MDA-MB-231),IC50 at 24 h [1],Activity [2],Kd [3],inhibition [4],"mortality at 24 h, up to 5 µM [5]",mortality at 1.25 µM [6]
CN(C)CCCNC(=O)c1cc2cc(Nc3nccc(-c4ccc(Cl)s4)n3)ccc2[nH]1,4.29 µM,6.14 µM,7.43 µM,Active,–,–,–,–
COc1ccc2[nH]cc(CCNC(=O)c3cc4cc(Nc5nccc(-c6cccnc6)n5)ccc4[nH]3)c2c1,8.36 µM,18.2 µM,> 20 µM,–,–,–,–,–
CCN(CC)CCCNC(=O)c1cc2cc(Nc3nccc(-c4cccs4)n3)ccc2[nH]1,8.41 µM,3.27 µM,14.3 µM,Active,–,–,–,–
CCN(CC)CCCNC(=O)c1cc2cc(Nc3nccc(-c4ccc(C(F)(F)F)cc4)n3)ccc2[nH]1,6.19 µM,6.52 µM,6.57 µM,–,–,–,–,–
CN(C)CCNC(=O)c1cc2cc(Nc3nccc(-c4ccccc4)n3)ccc2[nH]1,> 20 µM,8.04 µM,> 20 µM,Active,–,–,–,–
Cc1nc(-c2ccnc(Nc3ccc4[nH]c(C(=O)NCCCN(C)C)cc4c3)n2)c(C)s1,16 µM,> 20 µM,15.9 µM,–,–,–,–,–
COc1ccccc1-c1ccnc(Nc2ccc3[nH]c(C(=O)NCCCN(C)C)cc3c2)n1,> 20 µM,4.79 µM,> 20 µM,–,–,–,–,–
CN(C)CCCNC(=O)c1cc2cc(Nc3nccc(-c4cc(OCc5ccccc5)cc(OCc5ccccc5)c4)n3)ccc2[nH]1,11.4 µM,1.69 µM,3.9 µM,–,–,–,–,–
Cc1nc(-c2ccnc(Nc3ccc4[nH]c(C(=O)NCCN5CCOCC5)cc4c3)n2)c(C)s1,> 20 µM,> 20 µM,15.4 µM,–,–,–,–,–
CCCCN(CCCC)CCCNC(=O)c1cc2cc(Nc3nccc(-c4ccccc4)n3)ccc2[nH]1,15.2 µM,7.8 µM,4.96 µM,–,–,–,–,–
CCN(CC)CCCNC(=O)c1cc2cc(Nc3nccc(-c4ccc(OC)c(OC)c4)n3)ccc2[nH]1,11.4 µM,5.98 µM,3.57 µM,Active,–,–,–,–
CN(C)CCNC(=O)c1cc2cc(Nc3nccc(-c4cccc(OCc5ccccc5)c4)n3)ccc2[nH]1,> 20 µM,> 20 µM,> 20 µM,–,–,–,–,–
CCN(CC)CCCNC(=O)c1cc2cc(Nc3nccc(-c4cc(OCc5ccccc5)cc(OCc5ccccc5)c4)n3)ccc2[nH]1,1.89 µM,> 20 µM,2.89 µM,–,–,–,–,–
CCN(CC)CCCNC(=O)c1cc2cc(Nc3nccc(-c4cccnc4)n3)ccc2[nH]1,> 20 µM,10.5 µM,> 20 µM,–,–,–,–,–
O=C(N/N=C/c1ccncc1)c1ccc(Nc2ccnc3ccccc23)cc1,–,–,–,–,1.17 µM,–,–,–
COc1ccc(-c2ccnc(Nc3ccc4[nH]c(C(=O)NCCCN(C)C)cc4c3)n2)cc1OC,6.01 µM,2.58 µM,15 µM,Active,–,–,–,–
CCN(CC)CCCNC(=O)c1cc2cc(Nc3nccc(-c4nc(C)sc4C)n3)ccc2[nH]1,> 20 µM,> 20 µM,19.2 µM,Active,–,–,–,–
O=C(NCCN1CCCCC1)c1cc2cc(Nc3nccc(-c4cccc(OCc5ccccc5)c4)n3)ccc2[nH]1,> 20 µM,5.41 µM,1.76 µM,–,–,–,–,–

SMILES,IC50 (T47D),IC50 (MDA-MB-231),IC50 at 24 h [1],Activity [2],Kd [3],inhibition [4],"mortality at 24 h, up to 5 µM [5]",mortality at 1.25 µM [6]
CN(C)CCNC(=O)c1cc2cc(Nc3nccc(-c4ccc(C(F)(F)F)cc4)n3)ccc2[nH]1,6.71 µM,10.3 µM,2.12 µM,–,–,–,–,–
COc1ccc(-c2ccnc(Nc3ccc4[nH]c(C(=O)NCCN5CCN(C)CC5)cc4c3)n2)cc1OC,14.4 µM,17.4 µM,> 20 µM,–,–,–,–,–
CC(C)N(CCNC(=O)c1cc2cc(Nc3nccc(-c4ccccc4)n3)ccc2[nH]1)C(C)C,9.41 µM,11.1 µM,4.05 µM,–,–,–,–,–
CCCCCNC(=O)c1cc2cc(Nc3nccc(-c4ccccc4)n3)ccc2[nH]1,> 20 µM,17.3 µM,> 20 µM,Active,–,–,–,–
Cc1nc(-c2ccnc(Nc3ccc4[nH]c(C(=O)NCCN(C)C)cc4c3)n2)c(C)s1,3.65 µM,> 20 µM,15 µM,Active,–,–,–,–
CC1=C(O)C(=O)C=C2C1=CC=C1[C@@]2(C)CC[C@@]2(C)[C@@H]3C[C@](C)(C(=O)O)CC[C@]3(C)CC[C@]12C [CELASTROL],> 20 µM,–,5.45 µM,Active,–,Active,100%,100%
CCN(CC)CCCNC(=O)c1cc2cc(Nc3nccc(-c4ccccc4OC)n3)ccc2[nH]1,13 µM,8.32 µM,> 20 µM,Active,–,–,–,–
CN(C)CCNC(=O)c1cc2cc(Nc3nccc(-c4cccnc4)n3)ccc2[nH]1,> 20 µM,3.12 µM,> 20 µM,–,–,–,–,–
CCN(CC)CCCNC(=O)c1cc2cc(Nc3nccc(-c4cccc(OCc5ccccc5)c4)n3)ccc2[nH]1,> 20 µM,> 20 µM,> 20 µM,–,–,–,–,–
COc1ccc(-c2ccnc(Nc3ccc4[nH]c(C(=O)NCCN5CCCC5)cc4c3)n2)cc1OC,3.26 µM,4.02 µM,9.71 µM,–,–,–,–,–
CN(C)CCCNC(=O)c1cc2cc(Nc3nccc(-c4ccccc4)n3)ccc2[nH]1,7.88 µM,8.87 µM,> 20 µM,Active,–,–,–,–
Cc1nc(-c2ccnc(Nc3ccc4[nH]c(C(=O)NCCN5CCCC5)cc4c3)n2)c(C)s1,> 20 µM,> 20 µM,> 20 µM,–,–,–,–,–
CCN(CC)CCCNC(=O)c1cc2cc(Nc3nccc(-c4ccc(Cl)s4)n3)ccc2[nH]1,2.3 µM,6.7 µM,5.54 µM,Active,–,–,–,–
CCN(CC)CCCNC(=O)c1cc2cc(Nc3nccc(-c4ccccc4)n3)ccc2[nH]1,3.24 µM,7.24 µM,13 µM,Active,–,–,–,–
CCCCN(CCCC)CCCNC(=O)c1cc2cc(Nc3nccc(-c4cccnc4)n3)ccc2[nH]1,10.6 µM,4.3 µM,6.48 µM,Active,–,–,–,–
CN(C)CCCNC(=O)c1cc2cc(Nc3nccc(-c4cccs4)n3)ccc2[nH]1,4.28 µM,> 20 µM,> 20 µM,Active,–,–,–,–
CN(C)CCCNC(=O)c1cc2cc(Nc3nccc(-c4ccc(C(F)(F)F)cc4)n3)ccc2[nH]1,9.23 µM,0.91 µM,2.09 µM,–,–,–,–,–
CN(C)CCCNC(=O)c1cc2ccc(Nc3nccc(-c4cccnc4)n3)cc2[nH]1,> 20 µM,3.09 µM,> 20 µM,Active,0.354 µM,–,–,–
